Assay results: US20240325544A1, “CATIONIC LIPID FOR COVALENT MODIFICATION OF PEPTIDES” (PharmalN Corporation, priority 2023, published 2024)
Numbered stars: 1 amine (or outer) side, 2 acyl side, 3 side chain; on linkers, the order of the positions; unused ones are H or OH. Square brackets hold non-standard residues; d marks the D form. Peptide text beside a SMILES is read from it. * marks the point of attachment. C18 diacid = O=C(O)CCCCCCCCCCCCCCCCC(=O)*; γGlu = O=C(O)[C@H](CCC(=O)[*:2])N[*:1]; Stearoyl = CCCCCCCCCCCCCCCCCC(=O)*; Palmitoyl = CCCCCCCCCCCCCCCC(=O)*; Dab = NCC[C@H](N)C(=O)O; Dap = NC[C@H](N)C(=O)O; AEEA = NCCOCCOCC(=O)O; GABA = NCCCC(=O)O

Assays:
[1] = Clinically observable adverse effects of cationic alkyl moieties after subcutaneous bolus in rats (Table 1); assay type: in vivo, rat; settings: male, Sprague-Dawley, rat, in vivo, sc, tested at 3.0, 5.0 or 10 μmol/kg, lethargy is considered maximum tolerated bolus dose, read-out: Lethargy* in n = 3
Procedure: (§1) Drug administration and observation: Each rat received a subcutaneous injection of a cationic alkyl modifier (SEQ ID NO: 1-22; listed in Table 1 below) in a buffer of sterile water adjusted to a pH between 4.5-5, with an initial bolus dose of 5.0 μmol/kg and an injection volume of 1.0 mL/kg. The bolus dose level was adjusted based on observations, and animals were monitored closely for lethargy, ataxia, swelling, or discoloration during the first 4 hours post-injection and hourly thereafter. As used herein, “ataxia” means a clinical sign observed as poor muscle control that causes clumsy voluntary movements. It may cause difficulty with mobility, coordination, and eye movements. As used herein, “lethargy” means a clinical sign observed as inability or unwillingness to resume normal activity characterized by exploring and alertness. Lethargic rats are easily observed by displaying little to no activity and/or unwillingness to explore around, half closed eyes, and hunched posture. As used herein, “swelling” means a clinical sign observed as the enlargement or engorgement of body parts with blood or fluid and is associated with visible redness (discoloration). If no swelling occurred, dose level was increased to 10 μmol/kg; if swelling was present, bolus dose level was decreased to 3.0 μmol/kg. A wash-out period of 1 week was allowed between bolus doses, and animals were humanely euthanized through CO2 asphyxiation after final observation.

[2] = tested on: Sprague Dawley rats; test: as above; assay type: in vivo, rat; settings: tested at 3.0, 5.0 or 10 μmol/kg; for Ataxia** in n = 3: ataxia is bolus dose limiting toxicity; for Swelling and/or Discoloration in n = 3: dose at which sign was seen
Procedure: as §1

[3] = tested on: inflammatory cytokines (MCP1, IL-6, TNFα) in BALF; test: LPS ALI model: inflammatory cytokines in BALF by ELISA (Table 4); assay type: in vivo, mice; settings: LPS 0.05 mg/kg IT; SEQ 0.3 mg/kg SC, Sivelestat 150 mg/kg IP; 24 hours
Procedure: Animal care and treatment: Male C57BL/6J mice (6 weeks-old) were purchased from Kyudo (Saga, Japan) and maintained under a 12-hour light/12-hour dark cycle with free access to water and standard mouse diet (MF diet, Oriental Yeast Co., Ltd. Tokyo, Japan). Drug administration: Mice were administered LPS (0.05 mg/kg IT; Sigma-Aldrich) followed by treatment with various test articles, including Sivelestat (150 mg/kg; Nipro, Osaka, Japan), an inhibitor of human neutrophil elastase, injected IP as a positive control, and cationic alkyl modified CNPs (SEQ ID NO: 31, 29, and 30; 0.3 mg/kg (0.1 μmol/kg) SC). The test articles were administered immediately after LPS injection. Additionally, a normal control (NC) group without LPS administration and a Control group receiving only LPS without any test article were included. After 24 hours, the mice were euthanized under isoflurane anesthesia and BALF was harvested. Biochemical analysis: ALI and ARDS are often characterized by increased levels of inflammatory cytokines, including Macrophage Chemoattractant Protein-1 (MCP1), Interleukin-6 (IL-6), and […] (TNFα), in BALF. Decreases in their concentration can indicate the resolution of ALI/ARDS. Concentration of each cytokine (MCP1, IL-6, and TNFα) was measured using an ELISA kit (R&D SYSTEMS, Minneapolis M N). […] Statistical analysis was based on Dunnett's test performed by using GraphPad. (n=5, 8, 8, 8, and 8; NC, Control, PC, SEQ ID NO: 31, SEQ ID NO: 29). *** P<0.001, ** P<0.01, * P<0.05 vs each corresponding Control group.

Structure (SMILES) | MTD [1] | Ataxia** in n = 3 [2] | Swelling and/or Discoloration in n = 3 [2] | IL-6 in BALF [3] | MCP1 in BALF [3] | TNFα in BALF [3]
CCCCCCCCCCCCCCCC(=O)NCCCC(=O)NCCCC(=O)NCCCC(=O)N[C@@H](CCN)C(=O)N[C@@H](CCN)C(=O)O [SEQ ID NO: 12, CH3(CH2)14(C═O)-γAbu-γAbu-γAbu-Dab-Dab] ({Palmitoyl-GABA-GABA-GABA}-[Dab]-[Dab]-OH; C-terminus assumed) | > 10 µmol/kg | >10 µmol/kg | >10 µmol/kg |  |  | 
CCCCCCCCCCCCCCCC(=O)NCCOCCOCC(=O)NCCOCCOCC(=O)NCCOCCOCC(=O)N[C@@H](CN)C(=O)N[C@@H](CN)C(=O)N[C@@H](CN)C(=O)O [SEQ ID NO: 19, CH3(CH2)14(C═O)-Aeea-Aeea-Aeea-Dap-Dap-Dap] ({Palmitoyl-AEEA-AEEA-AEEA}-[Dap]-[Dap]-[Dap]-OH; C-terminus assumed) | > 10 µmol/kg | >10 µmol/kg | >10 µmol/kg |  |  | 
CCCCCCCCCCCCCCCC(=O)NCCOCCOCC(=O)NCCOCCOCC(=O)NCCOCCOCC(=O)N[C@@H](CCN)C(=O)N[C@@H](CN)C(=O)O [SEQ ID NO: 17, CH3(CH2)14(C═O)-Aeea-Aeea-Aeea-Dab-Dap] ({Palmitoyl-AEEA-AEEA-AEEA}-[Dab]-[Dap]-OH; C-terminus assumed) | > 10 µmol/kg | >10 µmol/kg | >10 µmol/kg |  |  | 
CCCCCCCCCCCCCCCC(=O)NCCOCCOCC(=O)NCCOCCOCC(=O)NCCOCCOCC(=O)N[C@@H](CCN)C(=O)N[C@@H](CCN)C(=O)O [SEQ ID NO: 10, CH3(CH2)14(C═O)-Aeea-Aeea-Aeea-Dab-Dab] ({Palmitoyl-AEEA-AEEA-AEEA}-[Dab]-[Dab]-OH; C-terminus assumed) | > 10 µmol/kg | >10 µmol/kg | ≥10 µmol/kg |  |  | 
CC(C)(C)C(=O)Oc1ccc(S(=O)(=O)Nc2ccccc2C(=O)NCC(=O)O)cc1 [Sivelestat, reference compound] |  |  |  | 69 % Of Control | 63 % Of Control | 63 % Of Control
NC[C@H](NC(=O)[C@H](CN)NC(=O)COCCOCCNC(=O)COCCOCCNC(=O)COCCOCCNC(=O)CCCCCCCCCCCCCCCCC(=O)O)C(=O)O [SEQ ID NO: 20, (HOOC)(CH2)16(C═O)-Aeea-Aeea-Aeea-Dap-Dap] ({C18 diacid-AEEA-AEEA-AEEA}-[Dap]-[Dap]-OH; C-terminus assumed) | > 10 µmol/kg | >10 µmol/kg | >10 µmol/kg |  |  | 
CCCCCCCCCCCCCCCC(=O)NCCOCCOCC(=O)NCCOCCOCC(=O)NCCOCCOCC(=O)N[C@@H](CN)C(=O)N[C@@H](CN)C(=O)N[C@@H](CN)C(=O)N[C@@H](CN)C(=O)O [SEQ ID NO: 22, CH3(CH2)14(C═O)-Aeea-Aeea-Aeea-Dap-Dap-Dap-Dap] ({Palmitoyl-AEEA-AEEA-AEEA}-[Dap][Dap][Dap][Dap]-OH; C-terminus assumed) | > 10 µmol/kg | >10 µmol/kg | >10 µmol/kg |  |  | 
CCCCCCCCCCCCCCCC(=O)NCCOCCOCC(=O)NCCOCCOCC(=O)N[C@@H](CCCCN)C(=O)N[C@@H](CCCCN)C(=O)N[C@@H](CCCCN)C(=O)N[C@@H](CCCCN)C(=O)O [SEQ ID NO: 4, CH3(CH2)14(C═O)-Aeea-Aeea-KKKK] ({Palmitoyl-AEEA-AEEA}-KKKK-OH; C-terminus assumed) | ≥ 3 µmol/kg | ≥3 µmol/kg | ≥3 µmol/kg |  |  | 
CCCCCCCCCCCCCCCC(=O)N[C@@H](CCC(=O)NCCOCCOCC(=O)NCCOCCOCC(=O)N[C@@H](CCN)C(=O)N[C@@H](CCN)C(=O)O)C(=O)O [SEQ ID NO: 15, CH3(CH2)14(C═O)-γE-Aeea-Aeea-Dab-Dab] ({Palmitoyl-γGlu-AEEA-AEEA}-[Dab]-[Dab]-OH; C-terminus assumed) | > 10 µmol/kg | >10 µmol/kg | >10 µmol/kg |  |  | 
NCC[C@H](NC(=O)[C@H](CCN)NC(=O)COCCOCCNC(=O)COCCOCCNC(=O)COCCOCCNC(=O)CCCCCCCCCCCCCCCCC(=O)O)C(=O)O [SEQ ID NO: 18, (HOOC)(CH2)16(C═O)-Aeea-Aeea-Aeea-Dab-Dab] ({C18 diacid-AEEA-AEEA-AEEA}-[Dab]-[Dab]-OH; C-terminus assumed) | > 10 µmol/kg | >10 µmol/kg | >10 µmol/kg |  |  | 
CCCCCCCCCCCCCCCC(=O)NCCOCCOCC(=O)NCCOCCOCC(=O)NCCOCCOCC(=O)N[C@@H](CCN)C(=O)N[C@@H](CCN)C(=O)N[C@@H](CCN)C(=O)O [SEQ ID NO: 9, CH3(CH2)14(C═O)-Aeea-Aeea-Aeea-Dab-Dab-Dab] ({Palmitoyl-AEEA-AEEA-AEEA}-[Dab]-[Dab]-[Dab]-OH; C-terminus assumed) | > 5 µmol/kg | >5 µmol/kg | ≥3 µmol/kg |  |  | 
CCCCCCCCCCCCCCCCCC(=O)N[C@@H](CCCCN)C(=O)N[C@@H](CCCCN)C(=O)N[C@@H](CCCCN)C(=O)N[C@@H](CCCCN)C(=O)NCC(=O)NCC(=O)NCC(=O)O [SEQ ID NO: 2, CH3(CH2)16(C═O)-KKKKGGG] (Stearoyl-KKKKGGG-OH; C-terminus assumed) | ≥ 3 µmol/kg |  | ≥3 µmol/kg |  |  | 
CCCCCCCCCCCCCCCC(=O)NCCOCCOCC(=O)NCCOCCOCC(=O)NCCOCCOCC(=O)N[C@H](CCCCN)C(=O)N[C@@H](CCCCN)C(=O)O [SEQ ID NO: 1, CH3(CH2)14(C═O)-Aeea-Aeea-Aeea-kK] | ≥ 3 µmol/kg | ≥3 µmol/kg | ≥3 µmol/kg |  |  | 
CCCCCCCCCCCCCCCC(=O)NCCOCCOCC(=O)NCCOCCOCC(=O)NCCOCCOCC(=O)N[C@@H](CCN)C(=O)N[C@@H](CCN)C(=O)N[C@@H](CCN)C(=O)N[C@@H](CCN)C(=O)O [SEQ ID NO: 8, CH3(CH2)14(C═O)-Aeea-Aeea-Aeea-Dab-Dab-Dab-Dab] ({Palmitoyl-AEEA-AEEA-AEEA}-[Dab][Dab][Dab][Dab]-OH; C-terminus assumed) | ≥ 3 µmol/kg | >5 µmol/kg | ≥3 µmol/kg |  |  | 
